Results published in patent publication US20260138961A1, “MODULATORS OF MITOCHONDRIAL DNA REPLICATION” (Pretzel Therapeutics, Inc., priority 2022, published 2026).

molecular target: T1, wild type human POLγ (POLγA:WT) (Homo sapiens, UniProt P54098); experiment: DNA polymerization assay, wild type POLγ; type: biochemical; conditions: 0.1 μM dNTP, read-out: WT AC50 (μM) at 0.1 μM
T1 sequence (P54098 1-1239): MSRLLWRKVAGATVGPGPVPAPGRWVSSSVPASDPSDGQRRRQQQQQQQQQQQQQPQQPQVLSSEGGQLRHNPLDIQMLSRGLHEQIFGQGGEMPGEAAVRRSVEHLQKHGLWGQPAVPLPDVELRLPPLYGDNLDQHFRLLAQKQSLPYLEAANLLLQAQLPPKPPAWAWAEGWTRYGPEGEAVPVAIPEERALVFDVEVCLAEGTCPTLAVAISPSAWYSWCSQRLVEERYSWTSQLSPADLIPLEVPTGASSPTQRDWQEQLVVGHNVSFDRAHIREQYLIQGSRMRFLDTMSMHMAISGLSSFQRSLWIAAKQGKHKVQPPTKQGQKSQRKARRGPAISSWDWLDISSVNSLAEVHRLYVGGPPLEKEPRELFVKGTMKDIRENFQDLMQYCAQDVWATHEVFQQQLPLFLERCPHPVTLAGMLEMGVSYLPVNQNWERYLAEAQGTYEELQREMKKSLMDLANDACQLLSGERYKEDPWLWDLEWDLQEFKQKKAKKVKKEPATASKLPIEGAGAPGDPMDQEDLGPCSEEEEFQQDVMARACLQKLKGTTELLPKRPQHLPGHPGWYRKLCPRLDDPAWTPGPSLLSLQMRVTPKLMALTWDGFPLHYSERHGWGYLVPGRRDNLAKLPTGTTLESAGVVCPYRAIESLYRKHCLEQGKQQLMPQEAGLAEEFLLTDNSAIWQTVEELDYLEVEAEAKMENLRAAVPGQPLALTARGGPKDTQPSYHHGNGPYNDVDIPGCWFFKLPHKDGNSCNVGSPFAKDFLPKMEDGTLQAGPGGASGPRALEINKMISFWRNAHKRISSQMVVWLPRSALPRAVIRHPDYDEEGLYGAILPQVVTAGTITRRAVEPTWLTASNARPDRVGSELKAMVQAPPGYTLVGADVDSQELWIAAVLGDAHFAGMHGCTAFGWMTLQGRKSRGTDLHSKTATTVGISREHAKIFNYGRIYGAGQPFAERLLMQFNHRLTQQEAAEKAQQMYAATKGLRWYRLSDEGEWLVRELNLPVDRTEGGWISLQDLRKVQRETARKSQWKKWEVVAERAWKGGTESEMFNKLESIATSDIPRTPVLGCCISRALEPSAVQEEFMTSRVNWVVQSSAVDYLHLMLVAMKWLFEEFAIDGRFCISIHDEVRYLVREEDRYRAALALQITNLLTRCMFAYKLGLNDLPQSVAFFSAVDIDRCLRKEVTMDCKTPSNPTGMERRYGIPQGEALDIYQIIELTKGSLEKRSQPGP
T1 sequence (Q9UHN1 1-485 partner): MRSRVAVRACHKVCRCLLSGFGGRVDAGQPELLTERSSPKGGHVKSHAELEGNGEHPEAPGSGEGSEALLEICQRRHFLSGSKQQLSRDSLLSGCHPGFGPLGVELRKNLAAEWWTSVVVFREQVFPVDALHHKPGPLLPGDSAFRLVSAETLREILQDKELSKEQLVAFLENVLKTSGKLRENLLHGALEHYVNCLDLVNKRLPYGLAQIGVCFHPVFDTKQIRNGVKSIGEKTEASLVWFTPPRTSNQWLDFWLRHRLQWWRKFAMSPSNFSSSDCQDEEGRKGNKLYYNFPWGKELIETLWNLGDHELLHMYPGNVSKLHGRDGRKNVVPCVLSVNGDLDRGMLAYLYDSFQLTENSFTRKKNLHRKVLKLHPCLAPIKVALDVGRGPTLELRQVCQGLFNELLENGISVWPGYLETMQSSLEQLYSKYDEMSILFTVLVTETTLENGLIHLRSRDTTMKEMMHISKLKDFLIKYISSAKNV
Method: DNA Polymerization Assay to Monitor Effects on Human Wildtype POLγ and Four Disease-Causing Mutant Variants of Human POLγ.
The ability of small molecules to stimulate the polymerase activity of POLγ was analyzed in a quantitative fluorescence SYBR Green I assay with fluorescence intensity (FI) readout.
In the presence of dNTPs, wild type human POLγ and mutant derivatives thereof were incubated with single-stranded, circular M13mp18 ssDNA hybridized to a short DNA oligonucleotide that functions as a primer for initiation of DNA synthesis. POLγ and mutant derivatives thereof will extend the primer and use the M13mp18 molecule as a template to synthesize long stretches of double-stranded DNA. SYBR Green I, which is a double-stranded DNA-binding dye, was used to quantify formation of double-stranded DNA in the reaction. When bound to double-stranded DNA, SYBR Green I fluorescence increases by up to 100-fold.
The assay was performed in the 384-well plate format. Upon addition of compounds, changes in double-stranded DNA synthesis activity can be monitored by following effects on fluorescent intensity.
The reactions also contained the accessory POLγB subunit, and the human mitochondrial single-stranded DNA binding protein (mtSSB).
The DNA template mixture used in the assay contained 0.5 nM primed M13 mp18 ssDNA, 400 nM mtSSB, 0.1 mM Tris-HCl (pH 8.0), 0.1 mM dNTP, 10 mM MgCl2, 0.1 mg/mL BSA, 1 mM TCEP solution, and 0.02% Triton X-100. The DNA template mixture for the wild type protein contained either 100 μM dNTP, 1 μM dNTP, or 0.1 μM dNTP, designated in Table 2 as 100 μM, 1 μM, and 0.1 μM, respectfully.
Microplates with compounds (0.1 μL in each well) to be tested in the assay were prepared from 10 mM compound stocks in 100% DMSO, and equal amounts of DMSO without any compound were added to positive and negative control wells.
The protein mixture was dispensed (5 μL into each well) into compound plates and incubated at 37° C. for 15 minutes. After incubation, 5 μL of the DNA template mixture was dispensed into each well. The plates were then incubated at 37° C. for 2 hours.
During incubation, a combined stop buffer and detection reagent solution was prepared. The buffer contained 25 mM EDTA (pH 8.0), 0.02% Triton X-100, and SYBR Green I [Invitrogen] diluted 10,000× (for fluorescent readout). EDTA will stop the enzymatic reaction by chelating magnesium ions.

Q: `Cc1ccc(C)c(S(=O)(=O)Nc2cccc(C(=O)N3CCOCC3)c2)c1` [Example 29, 2,5-dimethyl-N-(3-(morpholine-4-carbonyl)phenyl)benzenesulfonamide] was tested. Which AC50 did it give?
A: 2 µM

Q: How did the AC50 turn out when `CC(=O)N1CCN(C(=O)c2cccc(NS(=O)(=O)c3cc(C)ccc3C)c2)CC1` [Example 30, N-(3-(4-acetylpiperazine-1-carbonyl)phenyl)-2,5-dimethylbenzenesulfonamide] was run?
A: 2 µM

Q: With `Cc1ccc(C)c(S(=O)(=O)Nc2cccc(C(=O)N3CCCCCC3)c2)c1` [Example 32, N-(3-(azepane-1-carbonyl)phenyl)-2,5-dimethylbenzenesulfonamide] as the compound, how does the AC50 read?
A: 12 µM

Q: `Cc1ccc(C)c(S(=O)(=O)Nc2cccc(C(=O)N3CCSCC3C(N)=O)c2)c1` (stereo not drawn) [Example 41, 4-(3-((2,5-dimethylphenyl)sulfonamido)benzoyl) thiomorpholine-3-carboxamide] was tested. Which AC50 did it give?
A: > 100 µM

Q: Which AC50 does the source give for `Cc1cc(S(=O)(=O)Nc2ccc(F)c(C(=O)N3CCC[C@H]3C)c2)c(C)cc1Cl` [Example 49, (R)-4-chloro-N-(4-fluoro-3-(2-methylpyrrolidine-1-carbonyl)phenyl)-2,5-dimethylbenzenesulfonamide] here?
A: 2 µM

Q: With `Cc1cc(S(=O)(=O)Nc2cc(C(=O)N3CCC[C@H]3C)ccc2F)c(C)cc1Cl` [Example 50, (R)-4-chloro-N-(2-fluoro-5-(2-methylpyrrolidine-1-carbonyl)phenyl)-2,5-dimethylbenzenesulfonamide] as the compound, how does the AC50 read?
A: 1 µM

Q: For `Cc1cc(S(=O)(=O)Nc2cccc(C(=O)N[C@H](C)CO)c2)c(C)cc1Cl` [Example 51, (R)-3-((4-chloro-2,5-dimethylphenyl)sulfonamido)-N-(1-hydroxypropan-2-yl)benzamide], which AC50 is on record?
A: 6 µM

Q: For `Cc1cc(S(=O)(=O)Nc2cccc(C(=O)N3CCN(C)C[C@H]3C)c2)c(C)cc1Cl` [Example 54, (R)-4-chloro-N-(3-(2,4-dimethylpiperazine-1-carbonyl)phenyl)-2,5-dimethylbenzenesulfonamide], which AC50 is on record?
A: 1 µM

Q: For `COCCN(C)C(=O)c1cccc(NS(=O)(=O)c2cc(C)c(Cl)cc2C)c1` [Example 58, 3-((4-chloro-2,5-dimethylphenyl)sulfonamido)-N-(2-methoxyethyl)-N-methylbenzamide], which AC50 is on record?
A: 3 µM

same assay, conditions: 1 μM dNTP, read-out: WT AC50 (μM) at 1 μM

Q: How did the AC50 turn out when `COc1ccccc1-c1nc(NS(=O)(=O)c2cc(C)c(Cl)cc2C)cs1` [Example 155, 4-chloro-N-(2-(2-methoxyphenyl)thiazol-4-yl)-2,5-dimethylbenzenesulfonamide] was run?
A: 0.4 µM

same assay, conditions: 100 μM dNTP, read-out: WT AC50 (μM) at 100 μM

Q: With `Cc1cc(S(=O)(=O)Nc2cccc(C(=O)N(C)C(C)CO)c2)c(C)cc1Cl` (single isomer, unassigned) [Example 15, 3-((4-chloro-2,5-dimethylphenyl)sulfonamido)-N-(1-hydroxypropan-2-yl)-N-methylbenzamide] as the compound, how does the AC50 read?
A: > 10 µM

Q: For `Cc1csc(-c2cccc(NS(=O)(=O)c3cc(C)c(Cl)cc3C)c2)n1` [Example 20, 4-chloro-2,5-dimethyl-N-(3-(4-methylthiazol-2-yl)phenyl)benzenesulfonamide], which AC50 is on record?
A: 0.3 µM

Q: How did the AC50 turn out when `Cc1cnc(-c2cccc(NS(=O)(=O)c3cc(C)c(Cl)cc3C)c2)s1` [Example 21, 4-chloro-2,5-dimethyl-N-(3-(5-methylthiazol-2-yl)phenyl)benzenesulfonamide] was run?
A: 1 µM

Q: `Cc1ccc(C)c(S(=O)(=O)Nc2cccc(-c3nccs3)c2)c1` [Example 60] was tested. Which AC50 did it give?
A: 0.6 µM

Q: `Cc1cc(S(=O)(=O)Nc2cccc(-c3cc(C4CC4)[nH]n3)c2)c(C)cc1Cl` [Example 64, 4-chloro-N-(3-(5-cyclopropyl-1H-pyrazol-3-yl)phenyl)-2,5-dimethylbenzenesulfonamide] was tested. Which AC50 did it give?
A: 0.7 µM

Q: With `CC[C@@H]1CCCN1C(=O)c1cccc(NS(=O)(=O)c2cc(C)c(Cl)cc2C)c1` [Example 65, (R)-4-chloro-N-(3-(2-ethylpyrrolidine-1-carbonyl)phenyl)-2,5-dimethylbenzenesulfonamide] as the compound, how does the AC50 read?
A: 8 µM

Q: Which AC50 does the source give for `Cc1cc(-c2cccc(NS(=O)(=O)c3cc(C)c(Cl)cc3C)c2)n[nH]1` [Example 66, 4-chloro-2,5-dimethyl-N-(3-(5-methyl-1H-pyrazol-3-yl)phenyl)benzenesulfonamide] here?
A: 0.5 µM

Q: With `Cc1cc(S(=O)(=O)Nc2cccc(C(=O)N3CCC[C@H]3C(C)C)c2)c(C)cc1Cl` [Example 67, (S)-4-chloro-N-(3-(2-isopropylpyrrolidine-1-carbonyl)phenyl)-2,5-dimethylbenzenesulfonamide] as the compound, how does the AC50 read?
A: > 10 µM

Q: For `Cc1cc(S(=O)(=O)Nc2cccc(-c3cc[nH]n3)c2)c(C)cc1Cl` [Example 68, N-(3-(1H-pyrazol-3-yl)phenyl)-4-chloro-2,5-dimethylbenzenesulfonamide], which AC50 is on record?
A: 0.2 µM

Q: For `Cc1cc(S(=O)(=O)Nc2ccc3ccn(C(C)C)c3c2)c(C)cc1Cl` [Example 69, 4-chloro-N-(1-isopropyl-1H-indol-6-yl)-2,5-dimethylbenzenesulfonamide], which AC50 is on record?
A: 1 µM

Q: How did the AC50 turn out when `Cc1nc2ccc(NS(=O)(=O)c3cc(C)c(Cl)cc3C)cc2o1` [Example 70, 4-chloro-2,5-dimethyl-N-(2-methylbenzo[d]oxazol-6-yl)benzenesulfonamide] was run?
A: 11 µM

Q: For `Cc1cc(S(=O)(=O)Nc2cccc(C(=O)N3CCCC34CC4)c2)c(C)cc1Cl` [Example 162, N-(3-(4-azaspiro[2.4]heptane-4-carbonyl)phenyl)-4-chloro-2,5-dimethylbenzenesulfonamide], which AC50 is on record?
A: 0.4 µM

Q: Which AC50 does the source give for `COc1cccc(-c2nc(NS(=O)(=O)c3cc(C)c(Cl)cc3C)cs2)c1` [Example 165, 4-chloro-N-(2-(3-methoxyphenyl)thiazol-4-yl)-2,5-dimethylbenzenesulfonamide] here?
A: 0.7 µM

Q: For `Cc1cc(S(=O)(=O)Nc2csc(C(=O)N3CCCC3)n2)c(C)cc1Cl` [Example 166, 4-chloro-2,5-dimethyl-N-(2-(pyrrolidine-1-carbonyl)thiazol-4-yl)benzenesulfonamide], which AC50 is on record?
A: 2 µM
